The values below come from patent US20230158151A1 (NURIX THERAPEUTICS, INC., priority 2021, published 2023).

The target of the assay is T1, ITK (Homo sapiens, UniProt Q08881).
T1 construct: Compounds provided herein were assayed in vitro with ITK HiBit cell lines; endogenous in cells; host or cells: Molt4 (ATCC CRL-1552 [sic]), monoclonal clone 1C10
T1 sequence (Q08881 1-620): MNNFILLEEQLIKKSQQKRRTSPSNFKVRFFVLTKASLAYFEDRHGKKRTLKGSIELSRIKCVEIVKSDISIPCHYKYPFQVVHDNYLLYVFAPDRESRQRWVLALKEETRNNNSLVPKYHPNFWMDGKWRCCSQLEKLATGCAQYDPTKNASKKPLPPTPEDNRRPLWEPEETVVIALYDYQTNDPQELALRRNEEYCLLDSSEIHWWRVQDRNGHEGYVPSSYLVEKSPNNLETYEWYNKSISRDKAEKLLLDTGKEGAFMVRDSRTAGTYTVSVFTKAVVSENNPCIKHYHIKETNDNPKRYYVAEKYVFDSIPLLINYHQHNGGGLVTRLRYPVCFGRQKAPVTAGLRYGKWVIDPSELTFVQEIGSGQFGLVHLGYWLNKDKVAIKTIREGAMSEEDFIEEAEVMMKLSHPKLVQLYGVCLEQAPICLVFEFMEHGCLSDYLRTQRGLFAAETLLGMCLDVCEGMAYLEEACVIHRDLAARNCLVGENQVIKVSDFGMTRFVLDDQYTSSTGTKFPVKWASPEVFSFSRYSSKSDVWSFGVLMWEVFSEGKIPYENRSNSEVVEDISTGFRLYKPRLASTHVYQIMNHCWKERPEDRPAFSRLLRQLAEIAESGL
The assay can be described thus: ITK Degradation HiBiT Assay. Type of assay: cell-based. As to conditions: C-terminal HiBiT-tagged Molt4 cells, 4 hrs incubation; for Dmax: MOLT-4, read-out: HiBiT DMax (%). The procedure: Compounds provided herein were assayed in vitro with ITK HiBit cell lines. Compound dilution series (11-point, 5 fold dilutions in DMSO, columns 2-12 with replicate in rows A/B, C/D, E/F, G, H at 2000× the final required concentrations were prepared in 96 well plate (Falcon, cat. no. 353077). Column 1, rows A-H were control DMSO. The 2000× solutions ranged from 2 mM to 1.024 nM (final assay concentration range 1 μM to […]). The 2000× solutions were added to cells in […], for a final DMSO concentration of 0.5% and final assay compound concentration of 1×. For the cells, C-terminal HiBiT-tagged Molt4 cells (ATCC CRL-1552, monoclonal cell line clone 1C10) were plated at 1×10^6 cells/mL, 100 μL/well ([…]) in complete RPMI (10% FBS, 1% L-glutamine). The cells were incubated with compound 32 and compound 30 for 4 hrs at 32° C./6% CO2.
Following incubation, 100 μL of complete Nano-Glo HiBiT Lytic Detection Reagent (Nano-Glo HiBiT Lytic Buffer with 1:50 Nano-Glo HiBiT Lytic Substrate and 1:100 LgBiT Protein; Promega cat. no. N3O40) was added. Cells were further incubated for 10 min at room temperature (RT). Luminescence units (LU) were read on an EnVision plate reader (Perkin Elmer, 0.1 sec per well). Percent ITK remaining per sample was calculated as follows: […]
Using Graphpad Prism, % ITK remaining values were plotted as a function of compound concentration. To determine DC50 and Dmax values, resulting curves were fit to the Prism curve-fitting equation “log(inhibitor) vs response−Variable slope (four parameters)” (reported best fit value IC50 used as DC50). ITK was measured with antibody-based MSD (Meso-Scale Discovery) assays shown below.

Each structure is given as a SMILES string. Bounds are passed on as bounds.

As usually defined, the Dmax is the largest share of the target that was removed. With `CC1(C)CCc2c(-c3cc4ccc(C(=O)N5CCC(CN6CCN(c7cccc(C8CCC(=O)NC8=O)n7)CC6)CC5)cc4[nH]3)n[nH]c2C1` (stereo not drawn) [Compound 41], the Dmax is 27%.

Broadly, the DC50 is the midpoint of the concentration-degradation curve. The low end stands for degradation at low concentration, the high end for degradation only at high concentration. With `CN(C(=O)C1CCN(C(=O)c2ccc3cc(-c4n[nH]c5c4CCC(C)(C)C5)[nH]c3c2)CC1)C1CCN(c2ccc(C3CCC(=O)NC3=O)cn2)CC1` (stereo not drawn) [Compound 33, 1-(2-(6,6-dimethyl-4,5,6,7-tetrahydro-1H-indazol-3-yl)-1H-indole-6-carbonyl)-N-(1-(5-(2,6-dioxopiperidin-3-yl)pyridin-2-yl)piperidin-4-yl)-N-methylpiperidine-4-carboxamide], the DC50 is 40 pM and the Dmax came to 80%.

Regarding `C[C@@]12Cc3[nH]nc(C(=O)Nc4cnn(C5CN(CC6CCN(c7ccc(C8CCC(=O)NC8=O)cn7)CC6)C5)c4)c3C[C@@H]1C2(F)F` (stereo partly drawn) [Compound 12, (4aS,5aR)—N-(1-(1-((1-(5-(2,6-dioxopiperidin-3-yl)pyridin-2-yl)piperidin-4-yl)methyl)azetidin-3-yl)-1H-pyrazol-4-yl)-5,5-difluoro-5a-methyl-1,4,4a,5,5a,6-hexahydrocyclopropa[f]indazole-3-carboxamide], the DC50 was found to be 250 pM and the greatest degradation seen (Dmax) came out at 85%.

Consider `CN(C(=O)C1CCN(CC2CCN(c3ccc(C4CCC(=O)NC4=O)cn3)CC2)CC1)c1ccc2cc(-c3n[nH]c4c3C[C@@H]3C(F)(F)[C@]3(C)C4)[nH]c2c1` (stereo partly drawn) [Compound 5, N-(2-((4aS,5aR)-5,5-difluoro-5a-methyl-1,4,4a,5,5a,6-hexahydrocyclopropa[f]indazol-3-yl)-1H-indol-6-yl)-1-((1-(5-(2,6-dioxopiperidin-3-yl)pyridin-2-yl)piperidin-4-yl)methyl)-N-methylpiperidine-4-carboxamide], for which the maximal degradation (Dmax) came to 85%.

Consider `C[C@@]12Cc3[nH]nc(-c4cc5ccc(N6CCC7(CCN(CCC8CCN(c9ccc(C%10CCC(=O)NC%10=O)cn9)CC8)CC7)C6=O)cc5[nH]4)c3C[C@@H]1C2(F)F` (stereo partly drawn) [Compound 17, 3-(6-(4-(2-(2-(2-((4aS,5aR)-5,5-difluoro-5a-methyl-1,4,4a,5,5a,6-hexahydrocyclopropa[f]indazol-3-yl)-1H-indol-6-yl)-1-oxo-2,8-diazaspiro[4.5]decan-8-yl)ethyl)piperidin-1-yl)pyridin-3-yl)piperidine-2,6-dione], for which the 50% degradation concentration (DC50) was less than 10 pM and the greatest degradation seen (Dmax) came out at 89%.

Consider `CC1(C)CCc2c(-c3cc4ccc(C(=O)N5CCC(CC6CCN(c7ccc(C8CCC(=O)NC8=O)cn7)CC6)CC5)cc4[nH]3)n[nH]c2C1` (stereo not drawn) [Compound 19, 3-(6-(4-((1-(2-(6,6-dimethyl-4,5,6,7-tetrahydro-1H-indazol-3-yl)-1H-indole-6-carbonyl)piperidin-4-yl)methyl)piperidin-1-yl)pyridin-3-yl)piperidine-2,6-dione], for which the Dmax was 73%.

Take `CC1(C)CCc2c(-c3cc4ccc(C(=O)N5CCN(CCCCc6ccc(C7CCC(=O)NC7=O)cc6)CC5)cc4[nH]3)n[nH]c2C1` (stereo not drawn) [Compound 40, 3-(4-(4-(4-(2-(6,6-dimethyl-4,5,6,7-tetrahydro-1H-indazol-3-yl)-1H-indole-6-carbonyl)piperazin-1-yl)butyl)phenyl)piperidine-2,6-dione]: the DC50 amounted to 15000 pM and the Dmax is 68%.

As to `C[C@@]12Cc3[nH]nc(C(=O)Nc4cnn(C5CN(C(=O)C6CCN(c7ccc(C8CCC(=O)NC8=O)cn7)CC6)C5)c4)c3C[C@@H]1C2(F)F` (stereo partly drawn) [Compound 13, (4aS,5aR)—N-(1-(1-(1-(5-(2,6-dioxopiperidin-3-yl)pyridin-2-yl)piperidine-4-carbonyl)azetidin-3-yl)-1H-pyrazol-4-yl)-5,5-difluoro-5a-methyl-1,4,4a,5,5a,6-hexahydrocyclopropa[f]indazole-3-carboxamide], half-maximal degradation (DC50) was put at 1300 pM and the maximal degradation (Dmax) is 91%.

With `C[C@@]12Cc3[nH]nc(C(=O)Nc4cnn([C@H](c5ccccc5)C5CN(C(=O)C6CN(c7ccc(C8CCC(=O)NC8=O)cn7)C6)C5)c4)c3C[C@@H]1C2(F)F` (stereo partly drawn) [Compound 21, (4aS,5aR)—N-(1-((1S)-(1-(1-(5-(2,6-dioxopiperidin-3-yl)pyridin-2-yl)azetidine-3-carbonyl)azetidin-3-yl)(phenyl)methyl)-1H-pyrazol-4-yl)-5,5-difluoro-5a-methyl-1,4,4a,5,5a,6-hexahydrocyclopropa[f]indazole-3-carboxamide], the DC50 was less than 10 pM and the maximal degradation (Dmax) was found to be 83%.

As for `C[C@@]12Cc3[nH]nc(C(=O)Nc4cnn(C5CN(C(=O)C6CN(c7ccc(C8CCC(=O)NC8=O)cn7)C6)C5)c4)c3C[C@@H]1C2(F)F` (stereo partly drawn) [Compound 14, (4aS,5aR)—N-(1-(1-(1-(5-(2,6-dioxopiperidin-3-yl)pyridin-2-yl)azetidine-3-carbonyl)azetidin-3-yl)-1H-pyrazol-4-yl)-5,5-difluoro-5a-methyl-1,4,4a,5,5a,6-hexahydrocyclopropa[f]indazole-3-carboxamide], the greatest degradation seen (Dmax) turned out to be 78%.

Consider `C[C@@]12Cc3[nH]nc(-c4cc5ccc(N6CCC7(CCN(C(=O)C8CCN(c9ccc(C%10CCC(=O)NC%10=O)cn9)CC8)CC7)C6=O)cc5[nH]4)c3C[C@@H]1C2(F)F` (stereo partly drawn) [Compound 16, 3-(6-(4-(2-(2-((4aS,5aR)-5,5-difluoro-5a-methyl-1,4,4a,5,5a,6-hexahydrocyclopropa[f]indazol-3-yl)-1H-indol-6-yl)-1-oxo-2,8-diazaspiro[4.5]decane-8-carbonyl)piperidin-1-yl)pyridin-3-yl)piperidine-2,6-dione], for which the Dmax came out at 90%.

For `C[C@@]12Cc3[nH]nc(-c4cc5ccc(C(=O)N6CCN(CC7CCN(c8ccc(C9CCC(=O)NC9=O)cn8)CC7)CC6)cc5[nH]4)c3C[C@@H]1C2(F)F` (stereo partly drawn) [Compound 20, 3-(6-(4-((4-(2-((4aS,5aR)-5,5-difluoro-5a-methyl-1,4,4a,5,5a,6-hexahydrocyclopropa[f]indazol-3-yl)-1H-indole-6-carbonyl)piperazin-1-yl)methyl)piperidin-1-yl)pyridin-3-yl)piperidine-2,6-dione], the DC50 was less than 1 pM and the maximal degradation (Dmax) is 83%.

For the compound `CN(C(=O)CCC1CCN(c2ccc(C3CCC(=O)NC3=O)cn2)C1)c1ccc2cc(-c3n[nH]c4c3C[C@@H]3C(F)(F)[C@]3(C)C4)[nH]c2c1` (stereo partly drawn) [Compound 25, N-(2-((4aS,5aR)-5,5-difluoro-5a-methyl-1,4,4a,5,5a,6-hexahydrocyclopropa[f]indazol-3-yl)-1H-indol-6-yl)-3-(1-(5-(2,6-dioxopiperidin-3-yl)pyridin-2-yl)pyrrolidin-3-yl)-N-methylpropanamide], the Dmax came to 48%.

For `CN(C(=O)c1ccc2cc(-c3n[nH]c4c3CCC(C)(C)C4)[nH]c2c1)C1CCN(CC2CCN(c3ccc(C4CCC(=O)NC4=O)cn3)CC2)CC1` (stereo not drawn) [Compound 18, 2-(6,6-dimethyl-4,5,6,7-tetrahydro-1H-indazol-3-yl)-N-(1-((1-(5-(2,6-dioxopiperidin-3-yl)pyridin-2-yl)piperidin-4-yl)methyl)piperidin-4-yl)-N-methyl-1H-indole-6-carboxamide], the DC50 stood at 680 pM and the greatest degradation seen (Dmax) came out at 87%.

For `CC1(C)CCc2c(-c3cc4ccc(C(=O)N5CCN(CCC#Cc6ccc(C7CCC(=O)NC7=O)cc6)CC5)cc4[nH]3)n[nH]c2C1` (stereo not drawn) [Compound 34, 3-(4-(4-(4-(2-(6,6-dimethyl-4,5,6,7-tetrahydro-1H-indazol-3-yl)-1H-indole-6-carbonyl)piperazin-1-yl)but-1-yn-1-yl)phenyl)piperidine-2,6-dione], half-maximal degradation (DC50) was put at 2600 pM and the Dmax amounted to 60%.
